Legend:
SNU-16 = experiment: Cellular Proliferation Assay (Cell Counting Kit-8), SNU-16; assay type: cell-based; settings: Homo sapiens; SNU-16 cells, 72 hours
Method: (§1) Example 26: Cellular Proliferation Assay
(§2) • 1. Cell Line • KG-1 (ATCC Accession No. CCL-246), • SNU-16 (ATCC Accession No. CRL-5974), • RT-112 (ECACC Accession No. 85061106) • 2. Assay Protocol • FGFR related cancer cell proliferation is measured in 96-well plates using Cell Counting Kit-8 (Dojindo CK04-13). • Seed 30000 cells/well of KG1, 5000 cells/well of SNU16, and 1000 cells/well of RT112 in a volume of 100 μL/well in growth media. • After 24 hours, dilute the test compound to 10, 3.3, 1.1, 0.37, 0.12, 0.04, 0.013, 0.004 μM, keeping the DMSO concentration at 5%. • Add 10 μL of 8-point compound series to the wells of culturing cells. • Incubate at 37° C. and 5% CO2 for 72 hours • Add 10 μL/well of CCkit8 and incubate at 37° C. and 5% CO2 for an hour • Detect the optical density of each well at 450 nm on Labsystems Multiskan K3. • 3. Data Analysis
(§3) [formula] Note: • ODcompound well represents the optical density of cells treated with compound. • ODcell well represents the optical density of cells without compounds treatment.(only 0.5% DMSO) • ODcontrol well represents the optical density of culture media background • IC50: determined with add-in software for Microsoft Excel, XLfit™ (version 2.0) from ID Business Solutions (Guildford, UK).

RT-112 = experiment: Cellular Proliferation Assay (Cell Counting Kit-8), RT-112; assay type: cell-based; settings: Homo sapiens; RT-112 cells, 72 hours
Method: as §1, §2, §3

KG-1 = experiment: Cellular Proliferation Assay (Cell Counting Kit-8), KG-1; assay type: cell-based; settings: Homo sapiens; KG-1 cells, 72 hours; read-out: KG1 IC50
Method: as §1, §2, §3

FGFR3 kinase = FGFR3 kinase (Homo sapiens, UniProt P22607); experiment: Z-Lyte Kinase Assay of FGFR3; assay type: biochemical
Chain of FGFR3 kinase (P22607 23-806): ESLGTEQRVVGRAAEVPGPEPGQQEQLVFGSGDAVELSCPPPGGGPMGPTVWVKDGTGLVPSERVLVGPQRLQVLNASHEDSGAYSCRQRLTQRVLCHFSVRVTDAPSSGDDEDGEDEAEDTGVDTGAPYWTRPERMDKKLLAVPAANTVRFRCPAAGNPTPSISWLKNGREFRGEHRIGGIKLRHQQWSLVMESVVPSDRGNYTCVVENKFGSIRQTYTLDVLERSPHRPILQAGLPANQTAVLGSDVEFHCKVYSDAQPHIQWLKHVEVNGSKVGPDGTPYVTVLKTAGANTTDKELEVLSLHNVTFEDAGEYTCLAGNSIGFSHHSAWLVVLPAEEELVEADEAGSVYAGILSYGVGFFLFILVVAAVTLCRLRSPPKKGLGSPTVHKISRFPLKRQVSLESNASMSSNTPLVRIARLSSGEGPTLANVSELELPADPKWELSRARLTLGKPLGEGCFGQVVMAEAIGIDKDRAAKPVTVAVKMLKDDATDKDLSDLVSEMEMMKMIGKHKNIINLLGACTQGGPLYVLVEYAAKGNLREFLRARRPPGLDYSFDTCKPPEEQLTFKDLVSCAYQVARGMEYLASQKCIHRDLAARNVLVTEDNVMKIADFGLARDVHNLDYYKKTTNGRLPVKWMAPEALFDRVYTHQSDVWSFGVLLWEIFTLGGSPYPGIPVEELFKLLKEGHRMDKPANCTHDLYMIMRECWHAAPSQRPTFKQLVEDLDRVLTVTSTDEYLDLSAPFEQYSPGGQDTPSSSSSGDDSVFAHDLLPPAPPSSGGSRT
Method: Example 25: Z-Lyte Kinase Assay of FGFR3
• 1. Materials and Reagents:
• 2. Reaction Steps: Plate Map
• 3. […] The final concentrations are 1, 0.33, 0.11, 0.037, 0.012, 0.004, 0.0014, 0.00046 μM, and the final concentration of DMSO is 2%. • 3) Kinase/Peptide Mixture (P/K solution): Prepare Kinase/Peptide Mixture by diluting the kinase to 0.7 μg/ml and the Z-LYTE™ Tyr 4 peptide to 4 μM in 1.33× Kinase Buffer. Mix gently by pipetting. • 4) Phospho-peptide Solution (PP solution): Add 0.4 μl of Z-LYTE™ Tyr 4 Phospho-peptide to 99.6 μl of 1.33× Kinase Buffer. • 5) ATP Solution: Prepare ATP Solution by diluting the 10 mM of ATP in 1.33× Kinase Buffer to 300 uM. • 6) Development Solution: Dilute Development Reagent B with Development Buffer as 1:128. • 4. […] Shake the plate for 30 Sec and centrifuge (1500 rpm, 1 min). • Seal the plate to protect from the light and incubate the plate for 1 hour at RT (25-30° C.). • 2) Development reaction • Add 5 μl of the Development solution to all wells. • Shake the plate for 30 Sec and centrifuge (1500 rpm, 1 min). • Seal the plate to protect from the light and incubate the plate for 1 hour at RT (25-30° C.). • 3) Stop and Read • Add 5 μl of the Stop reagent to all wells. • Shake the plate for 30 Sec and centrifuge (1500 rpm, 1 min). • Measure the value of Coumarin (Ex400 nm, Em445 nm) and fluorescein (Ex400 nm, Em520 nm), respectively. • 5. Data Analysis Emission Ratio(ER)=Coumarin Emission (445 nm)/Fluorescein Emission (520 nm) % Phosphorylation=1−[ER×C3520nm-C3445nm]/[(C1445nm-C3445nm)+ER×(C3520nm−C1520nm)] Inhibition rate (IR)=1−% Photest Cpd/% PhoC2 • 6. IC50 Value: determined with add-in software for Microsoft Excel, XLfit™ (version 2.0) from ID Business Solutions (Guildford, UK)

Recombinant human FGFR1 = Recombinant human FGFR1 (Homo sapiens, UniProt P11362); experiment: Transcreener Kinase Assay of FGFR1; assay type: biochemical; settings: read-out: FGFR1 (FP) IC50
Chain of Recombinant human FGFR1 (P11362 22-822): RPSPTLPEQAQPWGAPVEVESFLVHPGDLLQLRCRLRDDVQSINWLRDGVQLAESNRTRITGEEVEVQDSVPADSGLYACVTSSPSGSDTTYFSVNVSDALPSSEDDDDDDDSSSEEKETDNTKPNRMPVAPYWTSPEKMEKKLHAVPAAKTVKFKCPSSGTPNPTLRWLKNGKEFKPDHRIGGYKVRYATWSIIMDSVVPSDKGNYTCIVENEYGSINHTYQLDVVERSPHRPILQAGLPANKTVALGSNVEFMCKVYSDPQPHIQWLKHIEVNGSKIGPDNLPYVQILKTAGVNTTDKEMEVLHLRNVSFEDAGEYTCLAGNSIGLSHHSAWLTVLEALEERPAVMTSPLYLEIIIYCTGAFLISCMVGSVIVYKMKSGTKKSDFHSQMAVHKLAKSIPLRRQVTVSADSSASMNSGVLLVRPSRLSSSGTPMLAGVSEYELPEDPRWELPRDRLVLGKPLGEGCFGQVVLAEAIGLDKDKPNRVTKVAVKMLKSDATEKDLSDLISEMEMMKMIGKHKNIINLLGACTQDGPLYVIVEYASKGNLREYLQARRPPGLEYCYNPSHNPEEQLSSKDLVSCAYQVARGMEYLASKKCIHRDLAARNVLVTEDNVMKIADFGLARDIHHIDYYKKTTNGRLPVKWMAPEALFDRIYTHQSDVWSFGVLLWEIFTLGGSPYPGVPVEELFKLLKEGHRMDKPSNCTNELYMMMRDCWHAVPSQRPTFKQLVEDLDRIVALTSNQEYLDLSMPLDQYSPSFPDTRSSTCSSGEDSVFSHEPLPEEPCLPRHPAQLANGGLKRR
Method: (§4) • 1. […] Prepare Solution • Test compounds were solved in DMSO and were diluted with assay buffer to 5 folds of final concentration keeping the DMSO concentration at 5%. Further dilution are needed to make final concentrations are at 1, 0.33, 0.11, 0.037, 0.012, 0.004, 0.0014, 0.0005 μM; (the final concentration of DMSO is 1%). • Enzyme/Substrate stock Preparation: Recombinant human FGFR1 and Poly E4Y are both diluted in assay buffer.
• 3. Enzymatic Reaction • In a 96-well plate, add 5 μL of diluted solution of test compound or control solution. (positive control: 5 μL of 5% DMSO; negative control: 5 μL of 500 mM EDTA) into desired wells respectively; • Add 10 μL of Enzyme/Substrate stock into each well; • Add 10 μL of ATP Diluents to initiate the enzyme reaction and vortex the plate immediately on a plate shaker; • For the wells to make standard curve, add 5 μL of 5% DMSO, 10 μL of assay buffer and 10 μL of ATP standard curve stock. • Incubate the plate for 45 min at 28° C. on a plate shaker in a low speed. • 4. […] Excitation wavelength: 610 nm, Emission wavelength: 670 nm. • 5. Data Analysis
(§5) [formula] Note: • [ADP] in Compound well represents the ADP concentration in test compound well. • [ADP] in Positive control well represents the ADP concentration in 5% DMSO well • Conversion of mP value to ADP concentration is calculated based on the formula which determined by standard curve. And mP value is measured by following the instruction provided by BellBrook Labs. (www.bellbrooklabs.com). • 6. IC50: determined with add-in software for Microsoft Excel, XLfit™ (version 2.0) from ID Business Solutions (Guildford, UK).

Recombinant human FGFR2 = Recombinant human FGFR2 (Homo sapiens, UniProt P21802); experiment: Transcreener Kinase Assay of FGFR2; assay type: biochemical; settings: read-out: FGFR2 (FP) IC50
Chain of Recombinant human FGFR2 (P21802 22-821): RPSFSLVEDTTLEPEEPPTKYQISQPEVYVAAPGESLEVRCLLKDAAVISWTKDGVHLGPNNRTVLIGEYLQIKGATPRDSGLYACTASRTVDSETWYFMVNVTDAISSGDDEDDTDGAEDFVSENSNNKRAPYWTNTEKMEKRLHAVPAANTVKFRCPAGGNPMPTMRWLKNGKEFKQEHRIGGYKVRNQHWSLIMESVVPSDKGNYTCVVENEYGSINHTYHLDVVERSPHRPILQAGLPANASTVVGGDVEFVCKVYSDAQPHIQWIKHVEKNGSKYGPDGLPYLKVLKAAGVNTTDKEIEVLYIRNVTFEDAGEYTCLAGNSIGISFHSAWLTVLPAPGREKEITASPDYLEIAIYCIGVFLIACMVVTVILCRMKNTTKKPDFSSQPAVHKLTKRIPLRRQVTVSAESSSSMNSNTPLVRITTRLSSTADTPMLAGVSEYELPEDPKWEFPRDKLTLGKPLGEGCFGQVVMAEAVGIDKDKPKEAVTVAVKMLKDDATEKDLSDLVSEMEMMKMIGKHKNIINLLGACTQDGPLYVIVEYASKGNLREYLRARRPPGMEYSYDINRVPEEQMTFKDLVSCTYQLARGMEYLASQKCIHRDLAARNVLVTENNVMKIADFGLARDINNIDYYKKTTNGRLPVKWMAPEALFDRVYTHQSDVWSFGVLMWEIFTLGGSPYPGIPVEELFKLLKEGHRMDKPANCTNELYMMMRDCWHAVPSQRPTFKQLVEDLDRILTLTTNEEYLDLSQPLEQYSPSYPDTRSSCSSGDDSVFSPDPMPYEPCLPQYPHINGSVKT
Method: Example 24: Transcreener Kinase Assay of FGFR2
as §4, with “FGFR2” for “FGFR1”, “buffer. The final concentration is 0.3 ng/μL for FGFR2 and 62.5 ng/μL for Poly E4Y. The mixture is being kept in ice before use; • Prepare ATP Diluents, 10 mM ATP is diluted in assay buffer, the final concentration is 25 μM; • Prepare ADP Diluents: diluted ADP (500 μM) in assay buffer, the final concentration is 25 μM; • Prepare ATP standard curve stock as following:” for “buffer.”
• 3. Enzymatic Reaction • In a 96-well plate, add 5 μL of deluted solution of test compound or control solution. (positive control: 5 μL of 5% DMSO; negative control: 5 μL of 500 mM EDTA) into desired wells respectively; • Add 10 μL of Enzyme/Substrate stock into each well; • Add 10 μL of ATP Diluents to initiate the enzyme reaction and vortex the plate immediately on a plate shaker; • For the wells to make standard curve, add 5 μL of 5% DMSO, 10 μL of assay buffer and 10 μL of ATP standard curve stock. • Incubate the plate for 45 min at 28° C. on a plate shaker in a low speed. • 4. Stoping Reaction and Detecting ADP • Detection Mix Preparation: The mixture is made by dilution with MilliQ water; as following: ADP Alexa633 tracer (1:100), ADP antibody (1:158), and stop & detect buffer (1:10); • Tracer Only control Preparation: The mixture is made by dilution with MilliQ water; as following: ADP Alexa633 tracer (1:100), and stop & detect buffer (1: 10) • No Tracer control Preparation: stop & detect buffer is diluted with MilliQ water; by 10 fold. • Add 25 μL of detection mix, Tracer Only control and No Tracer control into corresponding wells, respectively; • Incubate at 28° C. for 1 h, on a plate shaker in a low speed; • Measure florescence polarization (mP) on TECAN F500. Excitation wavelength: 610 nm, Emission wavelength: 670 nm. • 5. Data Analysis
as §5

IC50 (SNU-16)	IC50 (FGFR3 kinase)	IC50 (Recombinant human FGFR1)	IC50 (Recombinant human FGFR2)	SMILES	IC50 (RT-112)	IC50 (KG-1)
34 nM	40 nM	39 nM	12 nM	CNC(=O)c1cc(COc2cnc(Nc3ccc(-n4ccnn4)cc3)nc2)c(F)c(OC)c1 [Compound 222]	83 nM	52 nM
51 nM	20 nM	29 nM	18 nM	CNC(=O)c1cc(COc2cnc(Nc3ccc(-n4cnnc4)cc3)nc2)c(F)c(OC)c1 [Compound 223]	729 nM	102 nM
56 nM	56 nM	65 nM	27 nM	CCN1CCc2cc(Nc3ncc(OCc4cc(C(=O)NC)cc(OC)c4F)cn3)ccc21 [Compound 224]	234 nM	63 nM
14 nM	11 nM	26 nM	15 nM	CNC(=O)c1cc(COc2cnc(Nc3ccc(CCN(C)C)cc3)nc2)c(F)c(OC)c1 [Compound 225]	21 nM	7 nM
32 nM	27 nM	30 nM	10 nM	CNC(=O)c1cc(COc2cnc(Nc3ccc(S(C)(=O)=O)cc3)nc2)c(F)c(OC)c1 [Compound 226]	285 nM	35 nM
20 nM	25 nM	23 nM	8 nM	CNC(=O)c1cc(COc2cnc(Nc3cccc(S(C)(=O)=O)c3)nc2)c(F)c(OC)c1 [Compound 227]	85 nM	35 nM
97 nM	120 nM	29 nM	18 nM	CNC(=O)c1cc(COc2cnc(Nc3ccc(-c4cnn(C)c4)cc3)nc2)c(F)c(OC)c1 [Compound 228]	270 nM	94 nM
14 nM	45 nM	101 nM	32 nM	CNC(=O)c1cc(COc2cnc(Nc3ccc4c(c3)NC(=O)C4(C)C)nc2)c(F)c(OC)c1 [Compound 230]	26 nM	76 nM
8 nM	11 nM	16 nM	16 nM	CNC(=O)c1cc(COc2cnc(Nc3ccc(C4CCNCC4)cc3)nc2)c(F)c(OC)c1 [Compound 231]	9 nM	58 nM
60 nM	228 nM	17 nM	9 nM	CNC(=O)c1cc(COc2cnc(Nc3cccc(-n4nccn4)c3)nc2)c(Cl)c(OC)c1 [Compound 232]	107 nM	70 nM
63 nM	310 nM	98 nM	31 nM	CNC(=O)c1cc(COc2cnc(Nc3ccc(-n4nccn4)cc3)nc2)c(Cl)c(OC)c1 [Compound 233]	121 nM	58 nM
15 nM	30 nM	6 nM	4 nM	CNC(=O)c1cc(COc2cnc(Nc3cccc(-n4ccnn4)c3)nc2)c(Cl)c(OC)c1 [Compound 234]	35 nM	14 nM
42 nM	29 nM	66 nM	27 nM	CNC(=O)c1cc(COc2cnc(Nc3ccc(=O)n(C4CCCC4)c3)nc2)c(F)c(OC)c1 [Compound 237]	134 nM	79 nM
39 nM	23 nM	34 nM	23 nM	CCCN1CC(c2ccc(Nc3ncc(OCc4cc(C(=O)NC)cc(OC)c4F)cn3)cc2)C1 [Compound 240]	56 nM	23 nM
31 nM	19 nM	31 nM	21 nM	CCCN1CC(c2ccc(Nc3ncc(OCc4cc(C(=O)NC)cc(OC)c4F)cn3)cn2)C1 [Compound 241]	112 nM	162 nM
14 nM	13 nM	18 nM	10 nM	CNC(=O)c1cc(COc2cnc(Nc3ccc(CN4CCOCC4)cc3)nc2)c(F)c(OC)c1 [Compound 242]	32 nM	10 nM
6 nM	9 nM	20 nM	9 nM	CCN(CC)CCc1cccc(Nc2ncc(OCc3cc(C(=O)NC)cc(OC)c3F)cn2)c1 [Compound 243]	15 nM	69 nM

Reference: US9701680B2, “Pyrimidine and pyridine compounds and their usage” (HUTCHISON MEDIPHARMA LIMITED, priority 2013, dated 2017)
